Experimental data from patent US10953037B2, “Chondroitin sulfate derivative and agent for treating bladder diseases” (priority 2015, dated 2021).
Where two headings read alike, the source gives them in different places.

Tests used:
[1] = system: hydrochloric acid-induced micturition model rats; details: […] (w/v %), 0.2 mL single intravesical administration two days after HCl, cystometry seven days after HCl, vs. control (saline); for Intercontraction interval: FIG. 2
Description: Chondroitin sulfate derivatives prepared in compliance with the methods of Examples 3, 4 and 5 were dissolved in phosphate-buffered saline to prepare the test substances indicated below.
(§1) Two days after continuous instillation of hydrochloric acid, 0.2 mL of each test substance were administered transurethrally using a catheter (PE50) and retained in the bladder for 30 minutes under anesthesia.
Intercontraction interval and single voided volume were measured after changes in intravesical pressure had stabilized.

[2] = system: hydrochloric acid-induced micturition model rats; assay: Test Example B3: urinary function, rat hydrochloric acid-induced micturition model (comparison of conjugates and mixture); format: in vivo; details: 3% (w/v %) conjugate or mixture of 3% CS+[…] BTM, 0.2 mL single intravesical administration, cystometry seven days after HCl, vs. control
Description: A chondroitin sulfate derivative prepared in compliance with the method of Example 2 was dissolved in phosphate-buffered saline to prepare the test substances indicated below.
as §1

[3] = system: hydrochloric acid-induced micturition model rats; assay: Test Example B1: urinary function, rat hydrochloric acid-induced micturition model (steroid comparison); details: […] (w/v %), 0.2 mL single intravesical administration two days after HCl, cystometry seven days after HCl, vs. control (saline); for Intercontraction interval: FIG. 1

Row | Substance | Single voided volume [1] | Intercontraction interval [1] | Single voided volume [2] | Intercontraction interval ([2]; FIG. 4) | Single voided volume [3] | Intercontraction interval [3]
1 | CS introduced with 21-Glycyl-Triamcinolone Acetonide [CS-Gly-TA] | significant increase in single voided volume | significantly increased intercontraction interval |  |  |  | 
2 | CS introduced with 21-Isoleucyl-Triamcinolone Acetonide [CS-Ile-TA] | significant increase in single voided volume | significantly increased intercontraction interval |  |  |  | 
3 | CS introduced with 21-β-Alanyl-Betamethasone [CS-βAla-BTM] |  |  | significant increase in single voided volume | significantly increased intercontraction interval | significant increase in single voided volume | significantly increased intercontraction interval
4 | CS introduced with 21-β-Alanyl-Prednisolone [CS-βAla-PRED] |  |  |  |  | significant increase in single voided volume | significantly increased intercontraction interval
5 | CS introduced with 21-β-Alanyl-Triamcinolone Acetonide [CS-βAla-TA] | significant increase in single voided volume | significantly increased intercontraction interval |  |  | significant increase in single voided volume | significantly increased intercontraction interval
